Results reported in ChEMBL document CHEMBL4765257, “Synthesis and structure-activity relationship study of pyrrolidine-oxadiazoles as anthelmintics against Haemonchus contortus” (Eur J Med Chem, 2020).

Legend:
[1] = tested on: Haemonchus contortus; test: Anti-helmintic activity against third-stage Haemonchus contortus larvae assessed as inhibition of xL3 motility measured after 72 hrs; type: functional, organism-based
[2] = tested on: Haemonchus contortus; test: Anti-helmintic activity against fourth stage of Haemonchus contortus larvae assessed as reduction in development of L4 stage incubated for 72 hrs followed by reincubation in humidified environment for 4 days; type: functional, organism-based
[3] = Cytotoxicity against human MCF-10A cells assessed as inhibition of cell viability at 50 uM measured after 48 hrs by DAPI staining based analysis; settings: read-out: INH
[4] = tested on: MCF-10A; test: Cytotoxicity against human MCF-10A cells assessed as inhibition of cell viability measured after 48 hrs by DAPI staining based analysis
[5] = Haemonchus contortus, 72 h, read-out: IC50

Structure (SMILES)	IC50 [1]	IC50 [2] [µM]	cytotoxicity at 48 h, 50 µM [3] [%]	IC50 [4] [µM]	IC50 [1, 5] [µM]
O=C(Nc1ccc(Cl)cc1)N1CCC[C@H]1c1nc(-c2ccc(I)cc2)no1	Active	50	23	> 50	
N#Cc1ccc(NC(=O)N2CCC[C@H]2c2nc(-c3ccccc3)no2)cc1		> 100	27	> 50	18
O=C(Nc1ccc(Cl)cc1)N1CCC[C@H]1c1nc(-c2ccc(Br)cc2)no1	Active	> 100	30	> 50	
Cc1ccccc1NC(=O)N1CCC[C@H]1c1nc(-c2ccccc2)no1		> 100			> 100
N#Cc1cccc(NC(=O)N2CCC[C@H]2c2nc(-c3ccccc3)no2)c1		> 100			> 100
O=C(Nc1ccncc1)N1CCC[C@H]1c1nc(-c2ccccc2)no1		> 100			> 100
O=C(Nc1ccc(Cl)cc1)N1CCC[C@@H]1c1nc(-c2ccccc2)no1		> 100			> 100
O=C(Nc1ccccc1Br)N1CCC[C@H]1c1nc(-c2ccccc2)no1		> 100			> 100
O=C(Nc1ccc(C(F)(F)F)cc1)N1CCC[C@H]1c1nc(-c2ccccc2)no1		7	33	> 50	9.5
O=C(Nc1ccc(Cl)cc1)N1CCC[C@H]1c1nc(-c2ccc(O)cc2)no1		> 100			> 100
O=C(Nc1cccnc1)N1CCC[C@H]1c1nc(-c2ccccc2)no1		> 100			> 100
O=C(Nc1cccc(Cl)c1)N1CCC[C@H]1c1nc(-c2ccccc2)no1		> 100			> 100
Cc1ccc(-c2noc([C@@H]3CCCN3C(=O)Nc3ccc(Cl)cc3)n2)cc1	Active	50	47	> 50	
Cc1ccc(NC(=O)N2CCC[C@H]2c2nc(-c3ccccc3)no2)cc1		> 100			> 100
O=C(Nc1ccc(Cl)cc1)N1CCCC1c1nc(-c2ccccc2)no1 (configuration not stated)		0.31			3.46
O=C(Nc1ccc(OC(F)(F)F)cc1)N1CCC[C@H]1c1nc(-c2ccccc2)no1		13	18	> 50	4.2
Cc1cccc(NC(=O)N2CCC[C@H]2c2nc(-c3ccccc3)no2)c1		> 100			> 100
O=C(Nc1ccccc1O)N1CCC[C@H]1c1nc(-c2ccccc2)no1		> 100			> 100
O=C(Nc1ccccc1I)N1CCC[C@H]1c1nc(-c2ccccc2)no1		> 100			> 100
COc1ccccc1NC(=O)N1CCC[C@H]1c1nc(-c2ccccc2)no1		> 100			> 100
O=C(Nc1cccc(O)c1)N1CCC[C@H]1c1nc(-c2ccccc2)no1		> 100			> 100
O=C(Nc1ccc(O)cc1)N1CCC[C@H]1c1nc(-c2ccccc2)no1		> 100			> 100
COc1ccc(NC(=O)N2CCC[C@H]2c2nc(-c3ccccc3)no2)cc1		> 100			> 100
COc1cccc(-c2noc([C@@H]3CCCN3C(=O)Nc3ccc(Cl)cc3)n2)c1		> 100			> 100
CC(=O)c1ccccc1NC(=O)N1CCC[C@H]1c1nc(-c2ccccc2)no1		> 100			> 100
O=C(Nc1ccc(F)cc1)N1CCC[C@H]1c1nc(-c2ccccc2)no1		> 100			> 100
O=C(Nc1ccc(Br)cc1)N1CCC[C@H]1c1nc(-c2ccccc2)no1		12	20	> 50	1.8
O=C(Nc1ccc(Cl)cc1)N1CCC[C@H]1c1nc(-c2cccc(Cl)c2)no1		7.6	17	> 50	3

Structure (SMILES)	IC50 [1]	IC50 [2] [µM]	cytotoxicity at 48 h, 50 µM [3] [%]	IC50 [4] [µM]	IC50 [1, 5] [µM]
O=C(Nc1ccc(Cl)cc1)N1CCC[C@H]1c1nc(-c2ccc(Cl)cc2)no1		20	22	> 50	1.5
N#Cc1ccccc1NC(=O)N1CCC[C@H]1c1nc(-c2ccccc2)no1		> 100			> 100
O=C(Nc1ccc(Cl)cc1)N1CCC[C@H]1c1nc(-c2cccc(Br)c2)no1		> 100	20	> 50	1.1
COc1cccc(NC(=O)N2CCC[C@H]2c2nc(-c3ccccc3)no2)c1		> 100			> 100
O=C(Nc1ccc(Cl)cc1)N1CCC[C@H]1c1nc(-c2ccccc2Br)no1		22	30	> 50	12
Cc1ccccc1-c1noc([C@@H]2CCCN2C(=O)Nc2ccc(Cl)cc2)n1		50	36	> 50	0.78
CC(=O)c1cccc(NC(=O)N2CCC[C@H]2c2nc(-c3ccccc3)no2)c1		> 100			> 100
Cc1cccc(-c2noc([C@@H]3CCCN3C(=O)Nc3ccc(Cl)cc3)n2)c1		> 100	29	> 50	1.9
O=C(Nc1cccc(Br)c1)N1CCC[C@H]1c1nc(-c2ccccc2)no1		> 100			> 100
O=C(Nc1ccc(Cl)cc1)N1CCC[C@H]1c1nc(-c2ccc(F)cc2)no1		19	22	> 50	1.3
CN(C)S(=O)(=O)c1ccc(NC(=O)N2CCC[C@H]2c2nc(-c3ccccc3)no2)cc1		> 100			> 100
O=C(Nc1ccccc1F)N1CCC[C@H]1c1nc(-c2ccccc2)no1		> 100			> 100
O=C(Nc1ccc(I)cc1)N1CCC[C@H]1c1nc(-c2ccccc2)no1		3.2	8	> 50	5.6
O=C(Nc1ccc(Cl)cc1)N1CCC[C@H]1c1nc(-c2cccc(O)c2)no1		22.4	32	> 50	0.78
CC(=O)c1ccc(NC(=O)N2CCC[C@H]2c2nc(-c3ccccc3)no2)cc1		> 100			> 100
CC(C)c1ccc(NC(=O)N2CCC[C@H]2c2nc(-c3ccccc3)no2)cc1		> 100			> 100
N#Cc1cccc(-c2noc([C@@H]3CCCN3C(=O)Nc3ccc(Cl)cc3)n2)c1		> 100	16	> 50	> 100
COc1ccccc1-c1noc([C@@H]2CCCN2C(=O)Nc2ccc(Cl)cc2)n1		> 100			> 100
O=C(Nc1ccc(Cl)cc1)N1CCC[C@H]1c1nc(-c2cccc(F)c2)no1		18	22	> 50	8.1
O=C(Nc1ccc([N+](=O)[O-])cc1)N1CCC[C@H]1c1nc(-c2ccccc2)no1		50	22	> 50	50
O=C(Nc1ccc(Cl)cc1)N1CCC[C@H]1c1nc(-c2ccccc2F)no1	Active	> 100	30	> 50	
O=C(Nc1ccccc1Cl)N1CCC[C@H]1c1nc(-c2ccccc2)no1		> 100			> 100
O=C(Nc1ccc(Cl)cc1)N1CCC[C@H]1c1nc(-c2ccccc2O)no1		> 100			> 100
O=C(Nc1ccccc1)N1CCC[C@H]1c1nc(-c2ccccc2)no1		> 100			> 100
O=C(Nc1cccc(F)c1)N1CCC[C@H]1c1nc(-c2ccccc2)no1		> 100			> 100
O=C(Nc1ccc(Cl)cc1)N1CCC[C@H]1c1nc(-c2ccccc2Cl)no1		20	40	> 50	9.2
CS(=O)(=O)c1ccc(NC(=O)N2CCC[C@H]2c2nc(-c3ccccc3)no2)cc1		> 100			> 100
